Where two headings read alike, the source gives them in different places. Marks after values point to notes of the source that are not given here.
Assays:
[1] = body weight of STZ-induced diabetic rats; details: WA1-WA3 12 mg/kg; mean ± SEM, n = 8
[2] = tested on: streptozotocin (STZ)-induced diabetic rat model; test: kidney and liver function tests in STZ-induced diabetic rats; assay type: in vivo, Wistar rats; details: serum, 28th day; 12 mg/kg oral (glibenclamide 0.5 mg/kg); mean ± SEM, n = 8
[3] = tested on: streptozotocin (STZ)-induced diabetic rat model; test: serum lipid profile in STZ-induced diabetic rats; assay type: in vivo, Wistar rats; details: 28th day, 12 mg/kg oral (glibenclamide 0.5 mg/kg), mean ± SEM, n = 8
[4] = tested on: streptozotocin (STZ)-induced diabetic rat model; test: glycated hemoglobin; details: for HbA1c (%): Table 4: dose printed 6 mg/kg for WA1-WA3, 0.5 mg/kg glibenclamide, n = 8; for HbA1c level: text: WA1, WA2, WA3 at 12 mg/kg, diabetic control 10.12%
[5] = tested on: streptozotocin (STZ)-induced diabetic rat model; test: blood glucose level in STZ-induced diabetic rats; details: WA1-WA3 12 mg/kg oral, glibenclamide 0.5 mg/kg; mean ± SEM, n = 8
acute toxicity study = assay type: in vivo
α-amylase [6] = molecular target: T1, α-amylase (Homo sapiens, UniProt P04746); test: in-vitro α-amylase inhibitory activity; assay type: biochemical
T1 sequence (P04746 16-511): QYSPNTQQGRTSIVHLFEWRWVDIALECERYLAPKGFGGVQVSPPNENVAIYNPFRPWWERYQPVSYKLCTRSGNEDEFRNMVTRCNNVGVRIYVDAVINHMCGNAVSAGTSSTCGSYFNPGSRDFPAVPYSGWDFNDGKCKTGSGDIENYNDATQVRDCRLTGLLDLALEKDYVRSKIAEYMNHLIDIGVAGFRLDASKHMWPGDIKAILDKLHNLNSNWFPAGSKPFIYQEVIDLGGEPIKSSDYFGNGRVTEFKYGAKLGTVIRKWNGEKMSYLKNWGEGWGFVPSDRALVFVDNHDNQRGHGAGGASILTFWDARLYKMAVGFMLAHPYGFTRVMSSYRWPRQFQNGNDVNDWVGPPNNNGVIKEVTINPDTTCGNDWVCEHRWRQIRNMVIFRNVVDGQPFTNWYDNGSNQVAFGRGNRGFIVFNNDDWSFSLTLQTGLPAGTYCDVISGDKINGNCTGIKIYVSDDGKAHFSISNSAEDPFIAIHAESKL

α-glucosidase [7] = molecular target: T2, α-glucosidase (Saccharomyces cerevisiae, UniProt P53341); test: in-vitro α-glucosidase inhibitory activity; assay type: biochemical
T2 sequence (P53341 whole entry): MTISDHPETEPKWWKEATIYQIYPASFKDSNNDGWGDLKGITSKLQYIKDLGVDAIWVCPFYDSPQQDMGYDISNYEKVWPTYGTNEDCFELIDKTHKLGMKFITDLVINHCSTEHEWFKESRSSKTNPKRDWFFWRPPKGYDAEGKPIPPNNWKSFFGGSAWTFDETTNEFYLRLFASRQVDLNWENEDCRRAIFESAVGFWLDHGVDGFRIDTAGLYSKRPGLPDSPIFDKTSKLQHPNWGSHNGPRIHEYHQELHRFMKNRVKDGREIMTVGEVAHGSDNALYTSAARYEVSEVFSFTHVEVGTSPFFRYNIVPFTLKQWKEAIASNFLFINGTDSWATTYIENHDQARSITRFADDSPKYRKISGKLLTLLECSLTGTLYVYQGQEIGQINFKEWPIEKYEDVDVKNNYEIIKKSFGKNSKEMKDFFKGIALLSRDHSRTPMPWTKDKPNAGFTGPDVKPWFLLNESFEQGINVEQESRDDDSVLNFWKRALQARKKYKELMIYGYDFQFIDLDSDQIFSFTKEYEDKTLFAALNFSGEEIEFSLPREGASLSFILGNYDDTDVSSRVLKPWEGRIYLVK

α-amylase [8] = molecular target: T1, α-amylase; details: read-out: IC50 α-amylase; cited from earlier work
α-glucosidase [9] = molecular target: T2, α-glucosidase; details: read-out: IC50 α-glucosidase; cited from earlier work
[10] = tested on: STZ-induced diabetic rat model; details: during the course of 0–300 min; cited from earlier work

SMILES | body weight, 1st day [1] | body weight, 7th day [1] | body weight, 14th day [1] | body weight, 21st day [1] | body weight, 28th day [1] | kidney: creatinine [2] [mg/dL] | kidney: urea [2] [mg/dL] | liver: ALP [2] [U/L] | liver: ALT [2] [U/L] | liver: AST [2] [U/L] | HDL [3] [mg/dL] | LDL [3] [mg/dL] | TC (total cholesterol) [3] [mg/dL] | TG (triglycerides) [3] [mg/dL] | HbA1c (%) [4] | HbA1c level [4] [%] | blood glucose level, day 1st [5] [mg/dL] | blood glucose level, day 7th [5] [mg/dL] | blood glucose level, day 14th [5] [mg/dL] | lowering of blood glucose levels [10] | also measured
COc1ccc(Cl)cc1C(=O)NCCc1ccc(S(=O)(=O)NC(=O)NC2CCCCC2)cc1 [glibenclamide, reference compound] | 184.11 ± 5.15 | 183.91 ± 4.87 | 189.16 ± 5.13 | 187.63 ± 4.86 | 194.37 ± 4.90 | 1.01 ± 0.07 | 40.17 ± 1.90 | 133.67 ± 3.71 | 71.43 ± 2.13 | 55.03 ± 1.94 | 39.64 ± 1.51 | 40.17 ± 1.80 | 84.31 ± 4.95 | 102.97 ± 3.69 | 6.91*** % | 6.91 | 458.12 ± 6.15 | 349.36 ± 4.98 | 248.70 ± 6.96 | – | blood glucose level, day 21st [5]: 138.49 ± 4.86 mg/dL; blood glucose level, day 28th [5]: 102.19 ± 5.11 mg/dL
COc1ccc2cc3[n+](cc2c1OC)CCc1cc2c(cc1-3)OCO2 [WA1, berberine] | 183.77 ± 5.01 | 180.33 ± 4.91 | 178.16 ± 4.96 | 174.80 ± 4.77 | 170.88 ± 4.84 | 1.07 ± 0.06 | 47.30 ± 1.51 | 145.69 ± 3.78 | 88.30 ± 2.45 | 71.16 ± 1.79 | 35.11 ± 1.66 | 56.33 ± 2.79 | 92.67 ± 4.81 | 112.17 ± 3.10 | 7.55*** % | 7.55 | 460.11 ± 5.17 | 376.70 ± 4.98 | 268.21 ± 5.79 | – | nontoxic up to (acute toxicity profile) (acute toxicity study; oral doses 5-500 mg/kg b.w., observed up to 14 days): up to 500 mg/kg; behavior in acute toxicity profile (acute toxicity study; up to 500 mg/kg (b.w.)): normal behavior; IC50 (α-amylase [6]): 200 µM; blood glucose level, day 21st [5]: 176.33 ± 4.69 mg/dL; blood glucose level, day 28th [5]: 133.01 ± 5.18 mg/dL; IC50 (α-glucosidase [7]): 569 µM
CC(C)=CCCC1(C)C=Cc2c(c(C)cc3c2[nH]c2ccccc23)O1 (stereo not drawn) [mahanimbine] | – | – | – | – | – | – | – | – | – | – | – | – | – | – | – | – | – | – | – | – | IC50 (α-amylase [8]): 250 µM; IC50 (α-glucosidase [9]): 299 µM
CN(C)C(=N)N=C(N)N [metformin, reference compound] | – | – | – | – | – | – | – | – | – | – | – | – | – | – | – | – | – | – | – | 25.9% | –
COc1cc2[nH]c3c4c(c(C)cc3c2cc1OC)OC(C)(C)C=C4 [koenidine] | – | – | – | – | – | – | – | – | – | – | – | – | – | – | – | – | – | – | – | ~22.5% | –
COc1ccc2c(c1)[nH]c1c3c(c(C)cc12)OC(C)(C)C=C3 [O-methylmurrayamine A] | – | – | – | – | – | – | – | – | – | – | – | – | – | – | – | – | – | – | – | roughly 24.6% | –

From paper PMC10905588 (ACS Omega, 2024)
